Measured values reported in patent US10821079B2, “PKC activators and combinations thereof” (Cognitive Research Enterprises, Inc., priority 2011, dated 2020).
One block for each compound: values may come before it.

Columns and labels:
[1] = test system: rat primary hippocampal neurons; experiment: Neurotoxic effect of Aβ1-42 assemblies, MTT viability; format: cell-based; settings: 20 hr
Method: Viability of cells was measured by MTT assay. MTT (3-(4,5-Dimethylthiazol-2-yl)-2,5-diphenyltetrazolium bromide) is a tetrazolium salt that is cleaved to formazan by the succinate dehydrogenase, which is only active in viable cells. After solubilization of the formazan, the amount of dye can be quantified with a microplate reader at 570 nm along with a reference of 630 nm. For MTT assay, 5×104 primary rat hippocampal neurons from 18-day-old embryonic Sprague-Dawley rat brains were plated on each well of 24-well plates coated with poly-D-lysine. After treatment, the cells were washed with 1×PBS and were incubated with 200 μl of 1 mg/ml MTT solution (Sigma, USA) at 37° C. for 2 hr. Then the MTT-solution was removed and the cells were lysed with 200 μl isopropanol containing 0.04 M HCl and 160 mM NaOH for 10 min. Finally, the reading was done at 570 nm and 630 nm. All the samples were done in triplicates and the data was represented as the percentage of control.
To assess the neurotoxic effect of different sized oligomers, rat primary hippocampal neurons were treated with variable concentrations of these Aβ1-42 species for 20 hr. Viability of the treated cells was compared to untreated cells using the MTT assay.

[2] = test system: phosphatidylserine (C2) binding site; experiment: 3H-DCPLA-ME binding to rat brain slices with competitors, film autoradiography
Method: To determine the binding site of DCPLA-ME, ^3H-DCPLA-ME was incubated with rat brain slices in the absence and presence of known C1 and C2 competitors. More specifically, rat brain sections were fixed with formaldehyde, sliced, and incubated with (1) ^3H-DCPLA-ME alone; (2) ^3H-DCPLA-ME with DCPLA; (3) ^3H-DCPLA-ME with Phorbol ester; or (4) ^3H-DCPLA-ME and Bryostatin 1. After incubation, the slices were washed with a buffer made of 130 mM NaCl, 5 mM MgCl, 5 mM KCl, 1 mM EGTA, and 0.1% bovine serum albumin in 10 mM HEPES-NaOH, pH 7.4, dried, and analyzed with film-autoradiography.

[3] = biological target: T1, PKC-ε (Homo sapiens, UniProt Q02156); experiment: Activation of purified PKC isozymes, radiometric: PKC-ε; format: biochemical; settings: for Specificity ε/α: Activation of PKC-ε ÷ activation or inhibition of PKCα at 3 × EC50
T1 sequence (Q02156 1-737): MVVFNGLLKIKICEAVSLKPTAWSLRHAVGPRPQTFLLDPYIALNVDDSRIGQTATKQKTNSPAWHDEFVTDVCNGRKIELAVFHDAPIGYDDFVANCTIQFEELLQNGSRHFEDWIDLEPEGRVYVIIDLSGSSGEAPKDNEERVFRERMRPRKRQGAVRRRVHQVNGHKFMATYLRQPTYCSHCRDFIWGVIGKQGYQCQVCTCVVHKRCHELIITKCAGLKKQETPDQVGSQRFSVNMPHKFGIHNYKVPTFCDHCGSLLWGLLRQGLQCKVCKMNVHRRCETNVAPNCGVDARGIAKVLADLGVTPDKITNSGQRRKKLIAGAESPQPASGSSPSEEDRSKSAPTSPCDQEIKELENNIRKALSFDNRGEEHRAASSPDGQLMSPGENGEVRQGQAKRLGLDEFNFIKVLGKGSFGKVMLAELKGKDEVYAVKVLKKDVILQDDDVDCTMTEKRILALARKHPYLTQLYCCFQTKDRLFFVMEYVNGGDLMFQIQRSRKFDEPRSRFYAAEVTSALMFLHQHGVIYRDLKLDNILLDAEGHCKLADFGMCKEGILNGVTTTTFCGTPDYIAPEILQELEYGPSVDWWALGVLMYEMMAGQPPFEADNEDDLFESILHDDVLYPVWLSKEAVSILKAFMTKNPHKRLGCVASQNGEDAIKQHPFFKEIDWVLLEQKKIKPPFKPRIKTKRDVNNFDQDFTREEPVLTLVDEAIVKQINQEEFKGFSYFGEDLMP
Method: (§1) To measure PKC, 10 μl of cell homogenate or purified PKC isoform was incubated for 15 min at 37° C. in the presence of 10 μM histones, 4.89 mM CaCl2, 1.2 μg/μl phosphatidyl-L-serine, 0.18 μg/μl 1,2-dioctanoyl-sn-glycerol, 10 mM MgCl2, 20 mM HEPES (pH 7.4), 0.8 mM EDTA, 4 mM EGTA, 4% glycerol, 8 μg/ml aprotinin, 8 μg/ml leupeptin, and 2 mM benzamidine. [γ32P]ATP (0.5 μCi) was added and 32P-phosphoprotein formation was measured by adsorption onto phosphocellulose as described previously. See Nelson et al., J. Neurochemistry, 1995, 65: 2350-2357.
(§2) PKC activity of each compound was measured in the absence of diacylglycerol and phosphatidylserine and PKC-δ and PKC-ε were measured in the absence of added EGTA and CaCl2, as described by Kanno et al., J. Lipid Res., 2006, 47: 1146-1156. Low concentrations of Ca^2+ were needed because high Ca^2+ can interact with the PKC phosphatidylserine binding site and prevents activation. […] To determine their PKC isoform specificity, the compounds were pre-incubated with purified isoforms of PKC for five minutes and the PKC activity was measured radiometrically.
(§3) The activation and PKC isozyme specificity of DCPLA-ethyl ester was measured following the procedures in Example 1(B) and (C), except that 9 ng of the purified isozyme was used and it was pre-incubated for 5 minutes at room temperature (FIG. 3). PKC-ε activation by DCPLA-tert-butyl ester and DCPLA-retinyl ester was measured in the same manner as DCPLA-ethyl ester (FIG. 3).
The EC50 values, PKC specificity, and activation for a select number of DCPLA esters was determined (see Table 1). EC50 values were determined by measuring the lowest concentration that activates by 50% of maximum activation. […] The specificity and activation of PKC by the various esters of DCPLA were calculated from the measurements of activation of PKC isozymes.

[4] = biological target: PKCα (Homo sapiens, UniProt P17252); experiment: Activation of purified PKC isozymes, radiometric: PKC-α; format: biochemical
Method: (§4) To measure PKC activity, 10 μg of protein from either cytosol or membrane was incubated for 15 min at 37° C. in the presence of 10 μM histones, 4.89 mM CaCl2, 1.2 μg/μl phosphatidyl-L-serine, 0.18 μg/μl 1,2-dioctanoyl-sn-glycerol, 10 mM MgCl2, 20 mM HEPES (pH 7.4), 0.8 mM EDTA, 4 mM EGTA, 4% glycerol, 8 μg/ml aprotinin, 8 μg/ml leupeptin, 2 mM benzamidine, and 0.5 μCi of [γ-^32P]ATP. [^32P]Phosphoprotein formation was measured by adsorption onto phosphocellulose as described previously. See Nelson et al. (2009) J Biol Chem 284, 34514-34521. For measurements of activation by RA, PKC activity was measured in the absence of diacylglycerol (DAG) and phosphatidylserine, as described by Nelson et al. (2009) J Biol Chem 284, 34514-34521. PKC-δ and PKC-ε were measured in the absence of added EGTA and CaCl^2, as described by Kanno et al. (2006) J Lipid Res 47, 1146-1156. The enzyme was provided as a purified isozyme for in vitro experiments.
as §1, §2, §3

[5] = test system: PKC-ε; experiment: PKC-ε translocation to membrane in SH-SY5Y cells (Western blot); format: cell-based, human; settings: ASPD; ADDL at 20-fold higher concentrations
Method: Cells were harvested in homogenizing buffer containing 10 mM Tris-Cl (pH 7.4), 1 mM PMSF (phenylmethylsulfonyl fluoride), 1 mM EGTA, 1 mM EDTA, 50 mM NaF, and 20 μM leupeptin and were lysed by sonication. The homogenate was centrifuged at 100,000×g for 15 min at 4° C. to obtain the cytosolic fraction (supernatant) and membrane (pellet). The pellet was resuspended in the homogenizing buffer by sonication. Protein concentration was measured using the Coomassie Plus (Bradford) Protein Assay kit (Pierce, USA). Following quantification, 20 μg of protein from each sample was subjected to SDS-PAGE analysis in 4-20% gradient Tris-Glycine gel (Invitrogen, USA). The separated protein was then transferred to nitrocellulose membrane. The membrane was blocked with BSA at room temperature for 15 min and was incubated with primary antibody over night at 4° C. After the incubation, it was washed three times with TBS-T (Tris Buffered saline-Tween 20) and further incubated with alkaline phosphatase conjugated secondary antibody (Jackson Immunoresearch Laboratories, USA) at 1:10,000 dilution for 45 min. The membrane was finally washed three times with TBS-T and developed using the 1-step NBT-BCIP substrate (Pierce, USA). Western Blot was imaged in the ImageQuant RT-ECL (GE Life Sciences, Piscataway, N.J.) and densitometric quantification was performed using the IMAL software (Blanchette Rockefeller Neurosciences Institute, Morgantown, W. Va.). For translocation assays, PKC activation was represented as the percentage of total protein in the membrane (membrane/cytosol+membrane).
Equal amounts of proteins were loaded in each lane (20 μg) for both the cytosol and membrane fractions. Activation of PKC was calculated as the percentage of total PKC in the membrane (membrane/cytosol+membrane).

[6] = test system: rat hippocampal primary neurons; experiment: Synaptic marker immunofluorescence in rat hippocampal primary neurons; format: cell-based; settings: 50 nM ASPDs; 1 μM ADDLs; 20 hr
Method: Cells were grown in two chambered slides (Nunc, USA) at low density. For immunofluorescence staining, the cells were washed with PBS (pH 7.4) and fixed with 4% paraformaldehyde for 4 min. Following fixation, the cells were blocked and permeabilized with 5% serum and 0.3% Triton X 100 in 1×PBS for 30 min. The cells were washed three times with 1×PBS and incubated with primary antibodies for 1 hr at 1:100 dilution. The incubation slides were then washed again three times in 1×PBS and were incubated with the FITC anti-rabbit IgG and Rhodamine anti-mouse IgG for 1 hr at 1:400 dilution. The cells were further washed and treated with DAPI (4′,6-diamidino-2′-phenylindole, dihydrochloride) (Thermo Scientific, USA) to stain the nucleus. Finally, the slides were washed and mounted in Pro Long Gold antifade mounting solution (Invitrogen, USA) and were viewed under the LSM 710 Meta confocal microscope (Zeiss) at 350 nm, 490 nm, and 540 nm excitation and 470 nm, 525 nm, and 625 nm emission for DAPI, FITC, and Rhodamine respectively. Six individual fields at 63× oil lens magnification were analyzed for the mean fluorescence intensity (MFI) in each channel. The co-localization correlation generated by the ZEN software (Zeiss).
To estimate the synaptic damage caused by the ASPDs on primary hippocampal neurons, the expression of synaptophysin (a presynaptic marker) and PSD-95 (a postsynaptic marker) was measured by immunofluorescence staining. […] Following a 20 hr incubation period, the cells were stained for nucleus, PSD-95, and synaptophysin. Expression levels were calculated as the change of percentage in mean fluorescence intensity compared to untreated cells.
Primary neurons, treated and untreated, were immunostained for MAP-2, synaptophysin, and PSD-95 to determine the synaptic integrity. […] Following a 20 hr incubation period, the cells were stained for MAP-2, PSD-95, and synaptophysin as described above.

[7] = biological target: PKC-δ (Homo sapiens, UniProt Q05655); experiment: Activation of purified PKC isozymes, radiometric: PKC-δ; format: biochemical
Method: as §4, §1, §2

PKC-δ, sequence (Q05655 whole entry): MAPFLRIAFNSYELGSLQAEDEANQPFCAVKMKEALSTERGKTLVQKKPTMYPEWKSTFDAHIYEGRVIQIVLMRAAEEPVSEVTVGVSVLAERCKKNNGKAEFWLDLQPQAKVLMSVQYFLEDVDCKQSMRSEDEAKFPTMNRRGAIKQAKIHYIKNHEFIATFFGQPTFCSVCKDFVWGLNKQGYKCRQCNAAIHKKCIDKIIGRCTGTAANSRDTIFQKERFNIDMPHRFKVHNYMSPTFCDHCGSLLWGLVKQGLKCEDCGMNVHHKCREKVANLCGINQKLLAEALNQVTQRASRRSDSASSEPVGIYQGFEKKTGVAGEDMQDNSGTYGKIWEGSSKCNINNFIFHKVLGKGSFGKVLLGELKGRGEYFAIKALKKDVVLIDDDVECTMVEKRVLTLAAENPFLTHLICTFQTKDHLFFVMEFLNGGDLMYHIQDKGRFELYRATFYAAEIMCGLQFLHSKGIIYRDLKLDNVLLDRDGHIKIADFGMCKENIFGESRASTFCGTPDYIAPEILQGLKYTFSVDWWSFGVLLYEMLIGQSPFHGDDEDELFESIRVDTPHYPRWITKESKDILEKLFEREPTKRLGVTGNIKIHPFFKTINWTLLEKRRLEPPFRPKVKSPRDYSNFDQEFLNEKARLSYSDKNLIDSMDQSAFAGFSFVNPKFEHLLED

Compound: oAβ <100 kDa: filtrate from the 100 kDa filtration of the ASPD preparation
Viability of primary neuron (Mean ± SEM) ([1]; 50 nM): 76.01 ± 5.54 % of control
Viability of primary neuron (Mean ± SEM) ([1]; 500 nM): 62.94 ± 9.53 % of control
Viability of primary neuron (Mean ± SEM) ([1]; 1000 nM): 53.52 ± 2.43 % of control

Compound: CCCC(=O)O[C@@H]1[C@@H](C)[C@@]2(O)[C@@H](C=C(CO)C[C@]3(O)C(=O)C(C)=C[C@@H]23)[C@@H]2C(C)(C)[C@]12OC(=O)CCC [Phorbol ester (PdBu)]
3H-DCPLA-ME binding, 30 nM competitor [2]: 100%
3H-DCPLA-ME binding, 1 μM competitor [2]: 81%

Specificity ε/α [3]: 7.4
3H-DCPLA-ME binding, 30 nM competitor [2]: 86%
3H-DCPLA-ME binding, 1 μM competitor [2]: 35%
Compound: CCCCCC1CC1CC1CC1CCCCCCCC(=O)O (stereo not shown) [DCPLA, cyclopropanated linoleic acid]

Compound: CCCCC/C=C\C/C=C\CCCCCCCC(=O)O[C@H]1CC[C@@]2(C)C(=CC[C@H]3[C@@H]4CC[C@H]([C@H](C)CCCC(C)C)[C@@]4(C)CC[C@@H]32)C1 [Cholesteryl linoleate, cholesteryl linoleate]
PKC-ε activation (in words) [3]: little or no activation
PKC-α activation [4]: 20%

Compound: ADDL: Aβ derived diffusible ligands prepared from Aβ1-42
PKC-ε membrane translocation [5]: 80.82±4.025%
synaptophysin intensity compared to the control [6]: 75.64±4.84%
Viability of primary neuron (Mean ± SEM) ([1]; 50 nM): 91.35 ± 1.44 % of control
Viability of primary neuron (Mean ± SEM) ([1]; 500 nM): 79.01 ± 11.32 % of control
viability of neurons ([1]; 1 μM): 50.98±3.8%
Viability of primary neuron (Mean ± SEM) ([1]; 1000 nM): 49.02 ± 7.26 % of control

Compound: CCCCCC1CC1CC1CC1CCCCCCCC(=O)OC1CC[C@@]2(C)C(=CC[C@H]3[C@H]4CC[C@H]([C@H](C)CCCC(C)C)[C@@]4(C)CC[C@H]32)C1 (stereo partly shown) [DCPLA-cholesteryl ester]
PKC-ε activation at peak [3]: up to 130 % of control
concentration of maximal activation [3]: 0.01 nM
Specificity ε/α [3]: 0.94
potency relative to Bryostatin-1 ([3]; concentration of maximal activity): 18 ×
PKC-δ activation [7]: up to 130 % of control
effect on PKC-α (in words) [4]: inhibited at all concentrations

Specificity ε/α [3]: 4.2
Compound: CCCCCC1CC1CC1CC1CCCCCCCC(=O)OCC (stereo not shown) [DCPLA-ethyl ester]

Compound: CCCCCC1CC1CC1CC1CCCCCCCC(=O)OC/C=C(C)/C=C/C=C(C)/C=C/C1=C(C)CCCC1(C)C (stereo not shown) [DCPLA-retinyl ester]
EC50 ([3]; lowest concentration that activates by 50% of maximum activation): 10 nM
Activation ([3]; of PKCε at maximum): 129 % of control

PKC-ε activation at peak [3]: 140 % of control
concentration of maximal activation [3]: 10 nM
Specificity ε/α [3]: 8.1
Compound: CCCCCCCCC1CC1CCCCCCCCOC(=O)CCCCCCCC1CC1CC1CC1CCCCC (stereo not shown) [DCPLA-cyclopropanated oleyl ester]
